# PMC9300104 (2021)
# Columns and labels:
# [1] = test system: Gdn49 P1mut (A14G, GG) (RNA, riboswitch) GGUUUGCAGGACGGCCUGCAAACGCCUCUUUUCACCGGGGACGGCCCCA; experiment: 1H-1D NMR titration, U17 imino, Hill fit; conditions: 5 mM Mg2+, 50 mM KCl; 25 mM potassium phosphate, pH 6.2, room temperature, 50 μM RNA, Hill n 1.35
# [2] = test system: Gdn23 wt (P1 wild-type, ACGA loop) (RNA, riboswitch) GGUUUGCAGGACGACCUGCAAAC; experiment: 1H-1D NMR titration, U17 imino, Hill fit; conditions: 5 mM Mg2+, 50 mM KCl; 25 mM potassium phosphate, pH 6.2, room temperature, 50 μM RNA, Hill n 1.16
# [3] = test system: Gdn49 P1P2mut (A14G, G44A, GA) (RNA, riboswitch) GGUUUGCAGGACGGCCUGCAAACGCCUCUUUUCACCGGGGACGACCCCA; experiment: 1H-1D NMR titration, U17 imino, Hill fit; conditions: 5 mM Mg2+, 50 mM KCl; 25 mM potassium phosphate, pH 6.2, room temperature, 50 μM RNA, Hill n 1.38
# [4] = test system: Gdn49 P2mut (G44A, AA) (RNA, riboswitch) GGUUUGCAGGACGACCUGCAAACGCCUCUUUUCACCGGGGACGACCCCA; experiment: 1H-1D NMR titration, U17 imino, Hill fit; conditions: 5 mM Mg2+, 50 mM KCl; 25 mM potassium phosphate, pH 6.2, room temperature, 50 μM RNA, Hill n 1.01; two bound signals summed
# [5] = test system: Gdn13 wt (P2 wild-type, ACGG loop) (RNA, riboswitch) GGGGACGGCCCCA; experiment: 1H-1D NMR titration; conditions: 5 mM Mg2+, 50 mM KCl; 25 mM potassium phosphate, pH 6.2, room temperature; KD not detected; up to 8 mM Gdm+ (Table 2)
# [6] = test system: Gdn49 wt (aptamer wild-type, AG) (RNA, riboswitch) GGUUUGCAGGACGACCUGCAAACGCCUCUUUUCACCGGGGACGGCCCCA; experiment: 1H-1D NMR titration, U17 imino, Hill fit; conditions: 5 mM Mg2+, 50 mM KCl; 25 mM potassium phosphate, pH 6.2, room temperature, 50 μM RNA, Hill n 1.10; no binding without Mg2+
# [7] = test system: Gdn13 G44A (RNA, riboswitch) GGGGACGACCCCA; experiment: 1H-1D NMR, chemical shift perturbation; conditions: 5 mM Mg2+, 50 mM KCl; 25 mM potassium phosphate, pH 6.2, room temperature, 20 μM RNA, 1 mM Gdm+
smiles,measurement,setting,value
N=C(N)N,KD,[1],264.3 ± 27.8 µM
same,KD,[2],197.4 ± 8.8 µM
same,KD,[3],165.0 ± 14.3 µM
same,KD,[4],58.9 ± 8.1 µM
same,binding,[5],no
same,KD,[6],133.4 ± 3.9 µM
same,binding,[7],yes
